# Data from US11207337B2, “Co-therapy comprising canagliflozin and phentermine for the treatment of obesity and obesity related disorders” (Janssen Pharmaceutica NV, priority 2015, dated 2021).
# Tests used:
# C. elegans = conditions: BOHB treatment of the worm (C. elegans); Edwards et al. 2014; cited from earlier work
# [1] = 26 week placebo-controlled clinical trial: pulse rate (vital signs); type: in vivo, human
# Description: (§1) The safety and efficacy of combination treatment with 300 mg canagliflozin and 15 mg phentermine was investigated in a 26 week, randomized, double-blind, placebo-controlled, parallel group, multi-center study. (Complete study protocol filed and available as STUDY 28431754-OBE2002 on www.clinicaltrials.gov).
# (§2) The study began with a 4-week single blind placebo run-in period. […] All subjects were provided with diet and exercise counseling for weight loss (standardized non-pharmacological therapy) and were instructed to follow the diet and exercise program throughout the study.
# (§3) The modified intent-to-treat (mITT) analysis set included all randomized subjects who had received at least one dose of study drug. The primary efficacy endpoint was percent change from baseline in body weight at Week 26. The secondary efficacy endpoints included (1) proportion of subjects with weight loss ≥5% at Week 26, (2) absolute change from baseline in SBP ([…]) at Week 26, and (3) absolute change from baseline in body weight at Week 26. The inclusion of canagliflozin 300 mg and phentermine 15 mg as separate treatment groups allowed for a descriptive estimate of relative contribution of the individual components to the observed weight loss in the co-therapy canagliflozin 300 mg/phentermine 15 mg group and provided efficacy and safety data on canagliflozin 300 mg in the non-diabetic, overweight/obese population. Safety analyses included treatment-emergent adverse events (referred to as adverse events in this document), laboratory tests (including chemistry and hematology), and vital signs (blood pressure and pulse rate).
# [2] = 26 week randomized, double-blind, placebo-controlled clinical trial: body weight; type: in vivo, human; conditions: for Absolute Body Weight Change from Baseline at Week 26, LS Mean / Body weight % Change from Baseline at Week 26, LS Mean: MMRM; for Body weight % Change from Baseline at Week 26, LS Mean: overweight or obese non-diabetic adults; for Absolute Body Weight Change from Baseline at Week 26, Diff. of LS Means Minus Placebo / Body weight % Change from Baseline at Week 26, Diff. of LS Means Minus Placebo: placebo-subtracted; for estimated contribution to the weight loss observed at Week 26: share of the weight loss in the co-therapy group
# Description: as §1, §2, §3
# The change from baseline in absolute body weight at Week 26 was analyzed with an MMRM similar to the primary efficacy endpoint.
# [3] = 26 week placebo-controlled clinical trial: systolic and diastolic blood pressure; type: in vivo, human; conditions: Week 26; for Systolic Blood Pressure Change From Baseline, LS Mean: MMRM; for Diastolic Blood Pressure, Mean change / Diastolic Blood Pressure, Median change / Systolic Blood Pressure, Mean change / Systolic Blood Pressure, Median change: change from baseline, observed; for Systolic Blood Pressure Change From Baseline, Diff. of LS Means Minus Placebo: placebo-subtracted
# Description: as §1, §2, §3
# The reduction in diastolic blood pressure of −1.6 mm Hg (baseline 80 mm Hg) was not statistically significant.
# [4] = metformin on its own, in the diabetic; cited from earlier work
# [5] = Week 26, change from baseline, observed
Structure (SMILES),increase in lifespan (C. elegans),"Pulse Rate, Mean change ([1]; human, in vivo)","Pulse Rate, Median change ([1]; human, in vivo)","pulse, LS Mean change from baseline (SE) ([1]; human, in vivo)","Absolute Body Weight Change from Baseline at Week 26, LS Mean [2]","Body weight % Change from Baseline at Week 26, LS Mean [2]","Absolute Body Weight Change from Baseline at Week 26, Diff. of LS Means Minus Placebo [2]","Body weight % Change from Baseline at Week 26, Diff. of LS Means Minus Placebo [2]",estimated contribution to the weight loss observed at Week 26 [2],"Systolic Blood Pressure Change From Baseline, LS Mean [3]","Diastolic Blood Pressure, Mean change [3]","Diastolic Blood Pressure, Median change [3]","Systolic Blood Pressure, Mean change [3]","Systolic Blood Pressure, Median change [3]","Systolic Blood Pressure Change From Baseline, Diff. of LS Means Minus Placebo [3]","pulse, LS Mean change from baseline (SE) ([1]; Week 26)","Pulse Rate, Mean change [1, 5]","Pulse Rate, Median change [1, 5]",average improvement in the HbA1c value [4]
"CC(O)CC(=O)O (stereo not drawn) [BOHB, beta-hydroxybutyrate]",~20%,,,,,,,,,,,,,,,,,,
"Cc1ccc([C@@H]2O[C@H](CO)[C@@H](O)[C@H](O)[C@H]2O)cc1Cc1ccc(-c2ccc(F)cc2)s1 [Cana 300 mg, (1S)-1,5-anhydro-1-[3-[[5-(4-fluorophenyl)-2-thienyl]methyl]-4-methylphenyl]-D-glucitol]",,1.64 BEATS/MIN,0.83 BEATS/MIN,0.7 (1.0) bpm,-1.9 kg,−1.9%,-1.3 kg,−1.3%,18%,−3.1 mmHg,−1.32 mmHg,−1.17 mmHg,−3.31 mmHg,−1.67 mmHg,−0.4 mmHg,,,,
"CC(C)(N)Cc1ccccc1 [Phen 15 mg, 2-methyl-1-phenylpropan-2-amine]",,,,,-4.1 kg,−4.1%,-3.5 kg,−3.5%,50%,−1.4 mmHg,0.55 mmHg,0.67 mmHg,−1.13 mmHg,−0.33 mmHg,1.3 mmHg,4.1 (1.0) bpm,5.02 BEATS/MIN,4.67 BEATS/MIN,
CN(C)C(=N)N=C(N)N [metformin],,,,,,,,,,,,,,,,,,,1.0-1.5%
